Results reported in US12473262B2, “Aryl hydrocarbon receptor activators” (Oregon State University, priority 2019, dated 2025).

Target: aryl hydrocarbon receptor (AhR) (Mus musculus (Mouse), UniProt P30561)
Test: AhR ligand screening: AhRE-luciferase reporter in transfected Hepa1 cells
Format: cell-based
Conditions: for Fold @ 1 nM: fold change of luciferase expression at 1 nM test compound relative to vehicle (0.1% DMSO); for Fold @ 100 nM: fold change of luciferase expression at 100 nM test compound relative to vehicle (0.1% DMSO); for Fold @ 10 uM: fold change of luciferase expression at 10 uM test compound relative to vehicle (0.1% DMSO); for Fold relative to benchmark @ 100 nM: luciferase expression at 100 nM test compound relative to 100 nM benchmark compound 11-cl-BBQ
Description: The AhR is a ligand-activated transcription factor that dimerizes with ARNT to regulate gene expression, and genes that are regulated by AhR ligands have AhR response elements (AhRE) in their promotor regions.
Briefly, Hepa1 cells were transfected with a reporter construct consisting of AhRE linked to luciferase. The addition of AhR ligands to the transfected cells induces luciferase production that is directly proportional to the amount of AhR activation. We used this reporter system to identify novel compounds with AhR-activating properties. Transfected Hepa1 cells were plated at a density of 1×10^4 cells/well in 100 μL of cell culture media in 96 well plates and grown overnight. […] Following incubation with the compounds, the media was removed, and cells were harvested with lysis buffer. The lysates were transferred to opaque 96 well plates, where they were assayed well-by-well for luciferase activity by injection of luciferase assay substrate with a 2 sec mixing time and 15 sec integration period on a Tropix TR717 microplate luminometer. Data were expressed as fold induction of luciferase relative to vehicle (0.1% DMSO) treated cells.

aryl hydrocarbon receptor (AhR), sequence (P30561 10-805): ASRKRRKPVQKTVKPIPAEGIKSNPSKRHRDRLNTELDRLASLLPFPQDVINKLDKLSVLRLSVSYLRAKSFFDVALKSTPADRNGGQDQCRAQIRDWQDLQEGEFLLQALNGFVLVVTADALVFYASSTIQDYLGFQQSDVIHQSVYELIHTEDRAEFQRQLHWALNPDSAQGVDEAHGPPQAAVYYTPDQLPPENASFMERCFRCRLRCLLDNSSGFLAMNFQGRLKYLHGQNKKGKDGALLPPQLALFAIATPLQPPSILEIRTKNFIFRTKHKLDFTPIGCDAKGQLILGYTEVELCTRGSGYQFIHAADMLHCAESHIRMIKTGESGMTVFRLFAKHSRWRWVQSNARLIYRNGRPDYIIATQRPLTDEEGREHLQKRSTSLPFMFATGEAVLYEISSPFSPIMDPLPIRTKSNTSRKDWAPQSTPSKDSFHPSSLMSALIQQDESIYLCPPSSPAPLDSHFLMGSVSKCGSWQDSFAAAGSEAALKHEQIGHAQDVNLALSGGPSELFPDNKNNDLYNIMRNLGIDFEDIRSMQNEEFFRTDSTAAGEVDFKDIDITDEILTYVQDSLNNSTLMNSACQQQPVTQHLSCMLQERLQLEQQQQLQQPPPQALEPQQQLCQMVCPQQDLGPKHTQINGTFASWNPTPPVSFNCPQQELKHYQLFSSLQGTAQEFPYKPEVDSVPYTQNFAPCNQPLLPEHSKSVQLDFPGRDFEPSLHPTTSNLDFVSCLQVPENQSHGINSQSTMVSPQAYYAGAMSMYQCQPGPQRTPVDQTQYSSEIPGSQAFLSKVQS
aryl hydrocarbon receptor (AhR), sequence (P53762 whole entry partner): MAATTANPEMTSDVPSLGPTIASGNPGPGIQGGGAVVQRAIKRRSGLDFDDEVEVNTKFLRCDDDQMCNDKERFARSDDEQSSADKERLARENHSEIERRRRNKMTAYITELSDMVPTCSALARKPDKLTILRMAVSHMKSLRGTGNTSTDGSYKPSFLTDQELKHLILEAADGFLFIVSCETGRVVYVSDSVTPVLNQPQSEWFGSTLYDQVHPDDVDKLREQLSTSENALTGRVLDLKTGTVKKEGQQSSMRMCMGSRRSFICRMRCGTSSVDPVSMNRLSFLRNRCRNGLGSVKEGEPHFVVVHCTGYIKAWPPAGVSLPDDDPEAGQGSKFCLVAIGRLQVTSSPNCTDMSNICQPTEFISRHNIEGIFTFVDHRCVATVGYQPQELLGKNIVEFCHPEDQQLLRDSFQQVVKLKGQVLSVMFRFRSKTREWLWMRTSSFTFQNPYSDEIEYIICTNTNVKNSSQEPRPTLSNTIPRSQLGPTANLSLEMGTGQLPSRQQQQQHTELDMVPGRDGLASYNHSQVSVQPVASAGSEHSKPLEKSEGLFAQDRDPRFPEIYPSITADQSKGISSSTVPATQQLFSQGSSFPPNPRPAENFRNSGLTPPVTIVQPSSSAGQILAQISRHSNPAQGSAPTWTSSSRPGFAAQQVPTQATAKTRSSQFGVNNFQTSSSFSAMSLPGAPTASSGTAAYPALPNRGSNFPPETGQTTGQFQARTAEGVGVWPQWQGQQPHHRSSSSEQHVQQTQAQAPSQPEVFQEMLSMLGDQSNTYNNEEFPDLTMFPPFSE

SMILES	Fold @ 1 nM [fold]	Fold @ 100 nM [fold]	Fold @ 10 uM [fold]	Fold relative to benchmark @ 100 nM [fold]
Fc1cccc(F)c1Cn1c(-c2cccc3ccccc23)nc2cc(Cl)ccc21 [Compound 871]	1	1	12	0.02
O=C(c1ccc(F)cc1F)n1c(-c2cccc3ccccc23)nc2cc(Cl)ccc21 [Compound 695]	1	23	30	0.88
N#Cc1ccc(C(=O)n2c(-c3cccc4ccccc34)nc3ccc(Cl)cc32)cc1 [Compound 689]	1	28	47	1.08
Cc1ccc(S(=O)(=O)n2c(-c3cccc4ccccc34)nc3cc(Cl)ccc32)cc1 [Compound 527, 5-chloro-2-(naphthalen-1-yl)-1-tosyl-1H-benzo[d]imidazole]	1	15	36	0.38
c1ccc2c(c1)Cn1c3ccccc3c3ccnc-2c31 [Compound 526]	2.7	10	28	0.71
COc1ccc(-c2nc3cc(Cl)ccc3n2C(=O)c2ccccc2)cc1 [Compound 496]	1	1	3.5	0.03
O=C(c1cnc2ccccc2c1)n1c(-c2cccc3ccccc23)nc2ccc(Cl)cc21 [Compound 856]	1	38	46	1.31
COc1ccccc1S(=O)(=O)n1c(-c2cccc3ccccc23)nc2cc(C(=O)N3CCCCC3)ccc21 [Compound 1390]	1	1	3	0.03
O=S(=O)(C1CC1)n1c(-c2cccc3ccccc23)nc2ccc(Cl)cc21 [Compound 784]	1	2	34	0.07
Cn1cc(C(=O)c2cccc3ccccc23)c2cc(Cl)ccc21 [Compound 359, (5-chloro-1-methyl-1H-indol-3-yl)(naphthalen-1-yl)methanone]	1	1	6	0.03
O=C(c1ccc2nc(-c3cccc4ccccc34)n(S(=O)(=O)c3cccc(F)c3)c2c1)N1CCOCC1 [Compound 1357]	1	1	1	0.03
O=C(c1ccc(F)c(F)c1)n1c(-c2cccc3ccccc23)nc2cc(Cl)c(Cl)cc21 [Compound 692]	3	24	85	0.92
O=C(c1ccccc1)n1c(-c2ccc3ccccc3c2)nc2cc(F)ccc21 [Compound 584]	1	3	31	0.2
O=C(c1ccccc1)n1c(-c2cccc3ccccc23)nc2cc(F)ccc21 [Compound 583]	1	5	7	0.33
Cc1ccc2c(c1)nc(-c1cccc3ccccc13)n2C(=O)c1ccccc1 [Compound 701]	1	2	35	0.08
COc1ccc(C(=O)n2c(-c3cccc(C(F)(F)F)c3)nc3cc(Cl)ccc32)cc1 [Compound 764]	1	2	20	0.08
O=C(c1ccc(F)c(F)c1)n1c(-c2cccc(-c3ccccc3)c2)nc2cc(Cl)ccc21 [Compound 771]	1	1	2	0.04
N#Cc1ccc(S(=O)(=O)n2c(-c3cccc4ccccc34)nc3ccc(C(=O)N4CCCCC4)cc32)cc1 [Compound 1337]	1	1	8	0.03
COC(=O)c1ccc2c(c1)nc(-c1cccc3ccccc13)n2S(=O)(=O)c1ccc(C(F)(F)F)cc1 [Compound 1401]	1	1	2	0.03
O=C(c1ccc(F)c(F)c1)n1c(-c2cccc3ccccc23)nc2ccc(OC(F)(F)F)cc21 [Compound 700]	1	16	22	0.62
O=C(c1ccc2c(c1)nc(-c1cccc3ccccc13)n2Cc1ccc(SC(F)(F)F)cc1)N1CCCCC1 [Compound 1411]	1	1	4	0.03
O=C(c1ccc(F)c(F)c1)n1c(-c2cccc3c2CCCC3)nc2ccc(Cl)cc21 [Compound 780]	1	1	7	0.04
COC(=O)c1ccc2nc(-c3cccc4ccccc34)n(C(=O)c3ccc(OC(F)(F)F)cc3)c2c1 [Compound 1405]	1	2	30	0.07
O=C(c1ccc(F)c(F)c1)n1c(-c2ccc(F)c(Cl)c2)nc2ccc(Cl)cc21 [Compound 581]	1	1	15	0.07
O=C(c1ccc(F)c(F)c1)n1c(-c2cccc(C(F)(F)F)c2Cl)nc2cc(Cl)ccc21 [Compound 875]	1	3	48	0.06
N#Cc1ccc(S(=O)(=O)n2c(-c3cccc4ccccc34)nc3cc(C(=O)N4CCCCC4)ccc32)cc1 [Compound 1336]	1	1	6	0.03
COc1ccc(C(=O)n2c(-c3cccc(C(F)(F)F)c3)nc3ccc(Cl)cc32)cc1 [Compound 765]	1	2	14	0.08
O=C(c1ccncc1)n1c(-c2ccccc2)nc2ccc(Cl)cc21 [Compound 431]	1	1	8	0.03
O=C(c1ccc2nc(-c3cccc4ccccc34)n(Cc3ccc(F)c(F)c3)c2c1)N1CCOCC1 [Compound 1330]	1	1	1	0.03
O=C(c1ccc2c(c1)nc(-c1cccc3ccccc13)n2Cc1cccc2ccccc12)N1CCOCC1 [Compound 1408]	1	1	4	0.03
